Experimental data reported in patent US20090209587A1, “REPAGLINIDE FORMULATIONS” (priority 2008, published 2009).

Columns and labels:
[1] = cited from earlier work
[2] = Bulk/tapped density (USP Test 616), compressibility index and particle size distribution of repaglinide; type: physicochemical
Text: The percentages of particles with different sizes that exist in a total powder is the particle size distribution. It is represented in certain ways. Particle size is the maximum dimension of a particle, frequently expressed in μm. Particle size distributions can be expressed in terms of, D10, D50, D90 and D[4,3]. The D10, D50 and D90 represent the 10th, median or the 50th percentile, and the 90th percentile of the particle size distribution, respectively, as measured by volume. That is, the D10, D50, D90 are values of the distribution such that 10%, 50%, or 90% of the particles have a volume of this value or less, or is the percentage of particles smaller than that size. D50 is also known as median diameter of particle. It is one of the important parameters representing characteristics of particles of powders. For a sample, if D50=5 μm, it means that 50% of the particles are smaller than 5 μm. Similarly if D10=5 μm, 10% of the particles are less than or equal to 5 μm, and if D90=5 μm, 90% of the particles have sizes less than or equal to 5 μm. D[4,3] represents the volume moment mean of the particles, or the volume weighted particle size. Densities were determined according to USP Test 616 “Bulk Density and Tapped Density,” and compressibility index is percentage change in volume induced by tapping a sample of fixed mass.

SMILES: CCOc1cc(CC(=O)N[C@@H](CC(C)C)c2ccccc2N2CCCCC2)ccc1C(=O)O [Repaglinide, S-(+)-2-Ethoxy-4-(2((3-methyl-1-(2-(1-piperidinyl)phenyl)butyl)amino)2-oxoethyl) benzoic acid]
- solubility in methanol ([1]; methanol): freely soluble
- solubility in methylene chloride ([1]; methylene chloride): freely soluble
- solubility in water ([1]; water): practically insoluble
- Particle size distribution D10 [2]: 2 μm
- Particle size distribution D50 [2]: <4 μm
- Particle size distribution D90 [2]: <7 μm
- Bulk density ([2]; USP Test 616): 0.176 g/mL
- Tapped density ([2]; USP Test 616): 0.247 g/mL
- Compressibility index ([2]; percentage change in volume induced by tapping): 29.95
